# Reference: patent US9820937B2, “Pharmaceutical composition formulated for pre-gastric absorption of monoamine oxidase B inhibitors” (R.P. Scherer Technologies, LLC, priority 1997, dated 2017)
# Target: T1, MAO-B (Homo sapiens, UniProt P27338)
# T1 construct: from tissue; host or cells: whole body of living study subjects (in vivo); no isolated enzyme
# T1 sequence (P27338 1-520): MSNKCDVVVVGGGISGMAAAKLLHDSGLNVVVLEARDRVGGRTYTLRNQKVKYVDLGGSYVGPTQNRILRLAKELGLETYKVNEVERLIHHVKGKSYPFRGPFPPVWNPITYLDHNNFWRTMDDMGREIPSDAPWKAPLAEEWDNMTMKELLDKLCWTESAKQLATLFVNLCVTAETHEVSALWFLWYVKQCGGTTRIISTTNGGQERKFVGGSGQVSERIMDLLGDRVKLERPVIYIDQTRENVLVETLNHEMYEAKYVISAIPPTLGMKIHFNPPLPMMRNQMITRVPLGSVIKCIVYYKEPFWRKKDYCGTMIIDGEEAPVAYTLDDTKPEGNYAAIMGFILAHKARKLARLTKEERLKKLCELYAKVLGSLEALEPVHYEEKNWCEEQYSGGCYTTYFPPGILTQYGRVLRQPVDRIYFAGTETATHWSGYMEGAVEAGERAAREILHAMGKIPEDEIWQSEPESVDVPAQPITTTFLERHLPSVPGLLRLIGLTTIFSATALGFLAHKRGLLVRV
# Type: in vivo
# Details: four pharmacokinetic studies
structure (smiles),measurement,value
C#CCN[C@H](C)Cc1ccccc1 [N-desmethylselegiline],correlation of Log 10 plasma AUC with 24 hour cumulative urinary excretion of phenethylamine,no significant correlation
